In the CATMoS acute toxicity set (Mansouri et al. 2021):
Where “and” joins values, the source holds several entries; their conditions need not be identical. Equal entries are not always repeated.

Test: rat acute oral toxicity
Conditions: in vivo

Compound | LD50
COP(=O)(NC(C)=O)SC (centres undefined) | 700 mg/kg
CCOc1ccc(NC(C)=O)cc1 | 1650 mg/kg
COCCOC(C)=O | 1250 mg/kg
CNC(=S)S | 615 mg/kg
CS | 116 mg/kg
CC(O)C(=O)O (centres undefined) | 3540 mg/kg
Cc1nc(N(C)C)nc(OC(=O)N(C)C)c1C | 100 mg/kg
CC(O)CO (centres undefined) | 20000 mg/kg
CCCCCCCCCCCCNC(=N)N | 566 mg/kg
ClC1=C(Cl)C(Cl)(C2(Cl)C(Cl)=C(Cl)C(Cl)=C2Cl)C(Cl)=C1Cl | 1200 mg/kg
CCc1nn(C)c(C(=O)NCc2ccc(C(C)(C)C)cc2)c1Cl | 595 mg/kg
CCOP(=O)(O)C(N)=O | 2080 mg/kg
CC(C)C1OCC=CCO1 | 1000 mg/kg
c1ccc(OP(Oc2ccccc2)Oc2ccccc2)cc1 | 444 mg/kg
O=[N+]([O-])c1ccc(Cl)cc1O | 1000 mg/kg
N#CCO | 8 mg/kg
Cc1cccc(N=C=O)c1 | 2930 mg/kg
O=C(O)c1cccnc1 | 4500 mg/kg
COC(=O)c1ccccc1 | 1180 mg/kg
O=C1NC(=O)C(c2ccccc2)(c2ccccc2)N1 | 250 mg/kg
CCOC(=O)C(C)Oc1ccc(Oc2nc3ccc(Cl)cc3o2)cc1 (centres undefined) | 2360 mg/kg
CCCCCCCCCCCCCCN(C)C | 1320 mg/kg
C=CCOC(C)=O | 130 mg/kg
CCOP(=S)(OCC)Oc1nc(Cl)c(Cl)cc1Cl | 108 mg/kg

Compound | LD50
OC[P+](CO)(CO)CO | 161 mg/kg
O=C=NC1CCC(CC2CCC(N=C=O)CC2)CC1 (centres undefined) | 1060 mg/kg
CC(O)COCC(C)O (centres undefined) | 14800 mg/kg
CC(C)(O)C#N | 18.6 mg/kg
CN(C)c1nc(=O)n(C2CCCCC2)c(=O)n1C | 1200 mg/kg
Clc1cc(Cl)c(Cl)nc1Cl | 1000 mg/kg
C#CC(C)(C)NC(=O)c1cc(Cl)cc(Cl)c1 | 3350 mg/kg
CCCCCCCCCc1ccc(OCCOCCO)cc1 | 1310 mg/kg
CC(O)CN(CCCN(C)C)CCCN(C)C (centres undefined) | 1330 mg/kg
COc1cc(CNC(=O)CCCC/C=C/C(C)C)ccc1O | 148 mg/kg
C/C(=N\NC(=O)Nc1cc(F)cc(F)c1)c1ncccc1C(=O)O | 3300 mg/kg
O=c1oc2ccccc2c(O)c1C1CC(c2ccc(-c3ccc(Br)cc3)cc2)Cc2ccccc21 (centres undefined) | 0.16 mg/kg
CCCSP(=S)(OCC)Oc1ccc(SC)cc1 (centres undefined) | 65 mg/kg
CCOCCOCCOCC | 4970 mg/kg
O=c1ccc(=O)[nH][nH]1 | 3800 mg/kg
CC(Cl)(Cl)C(=O)O | 6940 mg/kg
NNC(N)=S | 9.16 mg/kg
CC(=O)OO | 39.9 mg/kg
CCNP(=S)(OC)O/C(C)=C/C(=O)OC(C)C (centres undefined) | 59.5 mg/kg
CC(C)(C)c1cc(C(C)(C)C)c(O)c(C(C)(C)C)c1 | 1610 mg/kg
C[Si](C)(Cl)Cl | 595 mg/kg
O=[N+]([O-])c1ccc(Oc2ccc(Cl)cc2Cl)cc1 | 2410 mg/kg
O=C(O)c1cccc(C(=O)O)c1 | 10400 mg/kg
O=C1O[B-]2(OC1=O)OC(=O)C(=O)O2 | 175 mg/kg

Compound | LD50
CC(=O)c1cc2c(cc1C)C(C)(C)C(C)CC2(C)C (centres undefined) | 920 mg/kg
C=C(C)C(=O)O | 1060 mg/kg
CNC(=O)CC#N | 387 mg/kg
CC(O)COc1ccccc1 (centres undefined) | 2830 mg/kg
Clc1cc2c(c(Cl)c1Cl)Oc1c(cc(Cl)c(Cl)c1Cl)O2 | 0.8 mg/kg
N=C(NCCCCCCNC(=N)NC(=N)Nc1ccc(Cl)cc1)NC(=N)Nc1ccc(Cl)cc1 | 1180 mg/kg
CC(=O)Oc1ccc(C(c2ccc(OC(C)=O)cc2)c2ccccn2)cc1 | 4300 mg/kg
Cc1ccc(S(N)(=O)=O)cc1 | 2330 mg/kg
CCCCCC(C)OC(=O)COc1ccc(Cl)c2cccnc12 (centres undefined) | 1100 mg/kg
CCCCOP(C)(=O)CCC(C#N)OC(C)=O (centres undefined) | 253 mg/kg
C1COCO1 | 3000 mg/kg
C=C(C)[C@H]1Cc2c(ccc3c2O[C@@H]2COc4cc(OC)c(OC)cc4[C@@H]2C3=O)O1 | 25 mg/kg
CCNc1ccccc1 | 334 mg/kg
CCOP(c1ccccc1)c1ccccc1 | 316 mg/kg
COC(=O)c1ccccc1C(=O)OC | 2860 mg/kg
CCNS(=O)(=O)C(F)(F)C(F)(F)C(F)(F)C(F)(F)C(F)(F)C(F)(F)C(F)(F)C(F)(F)F | 507 mg/kg
O=C(NC(=O)c1c(F)cccc1F)Nc1ccc(Cl)cc1 | 790 mg/kg
Cc1cccc(N)c1 | 450 mg/kg
CC(=O)OCCc1ccccc1 | 3670 mg/kg
CC(C)(C)CC(C)(C)N | 218 mg/kg
N#CCCC(Br)(C#N)CBr (centres undefined) | 515 mg/kg
CC(C)CCCCCCCOP(OCCCCCCCC(C)C)OCCCCCCCC(C)C | 12000 mg/kg
O=C(O)C=CC(=O)O | 708 mg/kg
CCN(CC)N=O | 220 mg/kg

Compound | LD50
Cc1ccc([N+](=O)[O-])cc1 | 2050 mg/kg
CC1=C(C(=O)Nc2ccccc2)SCCO1 | 430 mg/kg
C=CC(=O)Nc1ccccc1 | 300 mg/kg
N#Cc1nn(-c2c(Cl)cc(C(F)(F)F)cc2Cl)c(N)c1S(=O)C(F)(F)F (centres undefined) | 92 mg/kg
CC(C)(C)OOC(=O)c1ccccc1 | 1010 mg/kg
CCOP(=S)(OCC)Oc1cc(C)nc(C(C)C)n1 | 92 mg/kg
CC1(C)OC(c2ccco2)CN1C(=O)C(Cl)Cl (centres undefined) | 521 mg/kg
COC(=O)C(C)Oc1ccc(Oc2ccc(Cl)cc2Cl)cc1 (centres undefined) | 481 mg/kg
CC(C1CC1)C(O)(Cn1cncn1)c1ccc(Cl)cc1 (centres undefined) | 350 mg/kg
NC(N)=S | 20 mg/kg
COC(=O)c1ccccc1O | 887 mg/kg
CNN | 32 mg/kg
CO[C@H]1/C=C/O[C@@]2(C)Oc3c(C)c(O)c4c(O)c(c(/C=N/N5CCN(C)CC5)c(O)c4c3C2=O)NC(=O)/C(C)=C\C=C\[C@H](C)[C@H](O)[C@@H](C)[C@@H](O)[C@@H](C)[C@H](OC(C)=O)[C@@H]1C | 900 mg/kg
CSSC | 290 mg/kg
O=C1C=CC(=O)N1c1ccccc1 | 128 mg/kg
c1ccncc1 | 891 mg/kg
CC(C)OC(=O)COc1ccc(Cl)cc1Cl | 375 mg/kg
COC(=O)CS | 84 mg/kg
CC(C)N(C(=O)SCC(Cl)=C(Cl)Cl)C(C)C | 200 mg/kg
CC(=O)OC1CC(C)OC(C)O1 (centres undefined) | 1930 mg/kg
CCCC(C)=O | 1600 mg/kg
C[N+](C)(C)CCO | 3400 mg/kg
CC(C)N(C(=O)CO)c1ccc(F)cc1 | 474 mg/kg
COc1ccccc1O | 520 mg/kg

Compound | LD50
C=CCO | 64 mg/kg
COCCOCCOC | 4760 mg/kg
Nc1ncnc2c1ncn2C1CC(O)C(COP(=O)(O)OP(=O)(O)OP(=O)(O)O)O1 (centres undefined) | 6770 mg/kg
C1CNCCN1 | 1980 mg/kg
CCCCCCC(=O)O | 7000 mg/kg
CCCSP(=O)(OCC)Oc1ccc(Br)cc1Cl (centres undefined) | 358 mg/kg
O=C=Nc1ccccc1 | 800 mg/kg
C=COCCCC | 10000 mg/kg
CCOP(=S)(OCC)Oc1ccc(S(C)=O)cc1 (centres undefined) | 1.8 mg/kg
NC1CCC(CC2CCC(N)CC2)CC1 (centres undefined) | 350 mg/kg
C=C(Cl)Cl | 80 mg/kg
C=CCOC(=O)c1ccccc1C(=O)OCC=C | 656 mg/kg
ClCC1CO1 (centres undefined) | 65 mg/kg
CCC(C)(CCC(C)C)C(=O)OOC(C)(C)C (centres undefined) | 8080 mg/kg
COP(=S)(OC)Oc1ccc([N+](=O)[O-])cc1 | 6.01 mg/kg
Cc1ccc(Nc2ccc(Nc3ccc(C)cc3)c3c2C(=O)c2ccccc2C3=O)cc1 | 3000 mg/kg
N#CSCSc1nc2ccccc2s1 | 679 mg/kg
CC1(C)CC(N)CC(C)(C)N1 | 906 mg/kg
c1ccc(CNc2[nH]cnc3ncnc2-3)cc1 | 1300 mg/kg
O=C=Nc1ccc(OC(F)(F)F)cc1 | 1520 mg/kg
COc1nc(C)nc(NC(=O)NS(=O)(=O)c2ccccc2Cl)n1 | 5540 mg/kg
CN(C)c1ccc(N)cc1 | 50 mg/kg
OCCOCCOCCO | 17000 mg/kg
O=C(OCC1CCC2OC2C1)C1CCC2OC2C1 (centres undefined) | 4490 mg/kg

Compound | LD50
CCC1(c2ccccc2)C(=O)NC(=O)NC1=O | 162 mg/kg
O=[N+]([O-])c1cccc(Cl)c1Cl | 381 mg/kg
COCC(=O)N(c1c(C)cccc1C)C(C)C(=O)OC (centres undefined) | 566 mg/kg
C=CCCCC=CCOC | 4900 mg/kg
C=CCOC(=O)OCCOCCOC(=O)OCC=C | 350 mg/kg
CCCCCCCCCc1ccc(OP(Oc2ccc(CCCCCCCCC)cc2)Oc2ccc(CCCCCCCCC)cc2)cc1 | 10000 mg/kg
CN(C)C=O | 3000 mg/kg
CC1OC(C)OC(C)O1 (centres undefined) | 1530 mg/kg
ClC(Cl)c1ccccc1 | 3250 mg/kg
c1ccc(Oc2ccccc2)cc1 | 2450 mg/kg
CC(=O)C(Cl)C(=O)N(C)C (centres undefined) | 275 mg/kg
CCCCOCCOCCOC(OCCOCCOCCCC)c1ccc2c(c1)OCO2 | 2940 mg/kg
C=CNC=O | 1000 mg/kg
CC(Cc1ccc(C(C)(C)C)cc1)CN1CCCCC1 (centres undefined) | 1450 mg/kg
ClC(Br)Br | 370 mg/kg
O=P1(N(CCCl)CCCl)NCCCO1 (centres undefined) | 100 mg/kg
CN | 80 mg/kg
CCCCCCCCCCCCCC[N+](C)(C)Cc1ccccc1 | 281 mg/kg
CCCCCC(=O)O | 3000 mg/kg
COCCCN | 598 mg/kg
Cc1ccccc1C(OCCN(C)C)c1ccccc1 (centres undefined) | 255 mg/kg
COC(=O)OC(=O)OC | 260 mg/kg
ClC1=C(Cl)[C@]2(Cl)[C@H]3[C@H]([C@@H]4C=C[C@H]3C4)[C@@]1(Cl)C2(Cl)Cl (racemic) | 39 mg/kg
CNC(=O)Oc1ccccc1OC(C)C | 41 mg/kg

Compound | LD50
CCOP(=O)(OCC)OC(=CCl)c1ccc(Cl)cc1Cl | 9.66 mg/kg
CCC(C(c1ccc(Cl)cc1)c1ccc(Cl)cc1)[N+](=O)[O-] (centres undefined) | 300 mg/kg
CC(=O)OCCOC(C)=O | 6850 mg/kg
C1=CC2C3C=CC(C3)C2C1 (centres undefined) | 366 mg/kg
CC(Oc1cc(Cl)c(Cl)cc1Cl)C(=O)O (centres undefined) | 650 mg/kg
CCCCOC(=O)C(C)Oc1ccc(Oc2ccc(C(F)(F)F)cn2)cc1 (centres undefined) | 2910 mg/kg
C1CCSC1 | 1750 mg/kg
CCCCCCCCOC(=O)c1cc(O)c(O)c(O)c1 | 1960 mg/kg
CCOP(=O)(SC(C)CC)SC(C)CC (centres undefined) | 37.1 mg/kg
c1cc[n+]2c(c1)-c1cccc[n+]1CC2 | 220 mg/kg and 120 mg/kg
O=C(O)C1CCC(C(=O)O)CC1 (centres undefined) | 1900 mg/kg
COP(=S)(OC)Oc1ccc(S(=O)(=O)N(C)C)cc1 | 28 mg/kg
CCOC(=O)CC(O)(CC(=O)OCC)C(=O)OCC | 5900 mg/kg
CSc1ccc(C(=O)C(C)(C)N2CCOCC2)cc1 | 1460 mg/kg
ClC(Cl)(Cl)C(Cl)(Cl)Cl | 4460 mg/kg
CC(C)=CC1C(C(=O)OCc2coc(Cc3ccccc3)c2)C1(C)C (centres undefined) | 1240 mg/kg
CCCCN(CCCC)C(=O)N(CCCC)CCCC | 16700 mg/kg
CCN(CC)c1c([N+](=O)[O-])cc(C(F)(F)F)c(N)c1[N+](=O)[O-] | 3000 mg/kg
Clc1cccc(Cl)c1C(Cl)Cl | 1300 mg/kg
CC(=O)C1C(=O)C=C(C)OC1=O (centres undefined) | 500 mg/kg
